The values that follow come from patent US8748452B2, “Indolizine derivative and use thereof for medical purposes” (Kissei Pharmaceutical Co., Ltd., priority 2009, dated 2014).

T1 sequence (P80457 whole entry): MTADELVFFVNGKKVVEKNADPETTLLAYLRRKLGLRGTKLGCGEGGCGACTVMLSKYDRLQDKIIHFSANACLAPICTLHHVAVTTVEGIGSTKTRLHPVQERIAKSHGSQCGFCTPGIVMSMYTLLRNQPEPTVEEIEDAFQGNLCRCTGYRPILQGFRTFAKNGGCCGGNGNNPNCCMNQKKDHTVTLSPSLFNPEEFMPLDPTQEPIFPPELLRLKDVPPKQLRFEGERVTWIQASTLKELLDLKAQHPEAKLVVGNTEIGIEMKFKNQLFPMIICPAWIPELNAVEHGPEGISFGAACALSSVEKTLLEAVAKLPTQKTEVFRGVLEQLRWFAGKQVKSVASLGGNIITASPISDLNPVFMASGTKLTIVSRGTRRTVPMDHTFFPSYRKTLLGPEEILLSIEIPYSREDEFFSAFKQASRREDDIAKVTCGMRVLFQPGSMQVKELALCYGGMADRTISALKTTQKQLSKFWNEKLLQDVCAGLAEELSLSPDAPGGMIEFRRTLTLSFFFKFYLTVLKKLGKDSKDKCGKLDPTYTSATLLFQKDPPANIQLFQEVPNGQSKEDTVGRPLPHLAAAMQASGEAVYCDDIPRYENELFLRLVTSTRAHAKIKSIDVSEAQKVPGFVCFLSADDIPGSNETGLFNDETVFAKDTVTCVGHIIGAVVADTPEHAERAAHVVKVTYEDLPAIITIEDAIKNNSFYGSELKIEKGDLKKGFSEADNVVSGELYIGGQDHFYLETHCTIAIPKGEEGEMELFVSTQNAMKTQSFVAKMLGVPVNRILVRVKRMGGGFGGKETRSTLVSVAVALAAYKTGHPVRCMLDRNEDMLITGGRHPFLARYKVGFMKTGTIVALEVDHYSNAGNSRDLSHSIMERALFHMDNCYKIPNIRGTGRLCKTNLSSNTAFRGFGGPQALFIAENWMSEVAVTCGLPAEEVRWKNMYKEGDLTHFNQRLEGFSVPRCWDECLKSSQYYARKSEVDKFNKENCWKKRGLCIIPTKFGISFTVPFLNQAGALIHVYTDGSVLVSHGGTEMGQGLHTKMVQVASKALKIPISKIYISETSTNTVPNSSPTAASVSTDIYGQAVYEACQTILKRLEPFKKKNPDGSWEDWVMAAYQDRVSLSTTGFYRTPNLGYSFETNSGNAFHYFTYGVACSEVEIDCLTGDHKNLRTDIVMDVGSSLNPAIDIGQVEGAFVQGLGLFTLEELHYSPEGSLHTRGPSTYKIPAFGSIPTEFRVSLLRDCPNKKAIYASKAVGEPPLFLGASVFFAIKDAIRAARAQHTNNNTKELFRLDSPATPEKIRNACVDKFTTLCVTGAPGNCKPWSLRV

The first assay deals with male CD (SD) IGS rats. The experiment in a line: Serum hypouricemic effect. It is filed as in vivo. The note with it: Rattus norvegicus; 1 mg/kg oral gavage, overnight fasted male rats, serum at 2 hours after administration; read-out: percent decrease in uric acid. On the procedure: Test compounds at 1 mg/kg suspended in 0.5% methylcellulose solution were administered by oral gavage administration to overnight fasted male CD (SD) IGS rats (5-week-old, Charls River Japan). At 2 hours after administration, blood was collected under ether anesthesia from abdominal aorta, and serum was separated according to general method. Serum uric acid values were determined by use of uric acid measurement kit (Uric acid C-Test Wako: Wako pure chemical), and percent decrease in uric acid was calculated according to the formula described below. As a result, it was shown that compounds of Examples 2, 7, 10, 22, 23, 25, 37, 49, 50 and 58 have over 60% percent decrease in uric acid.
Percent decrease in uric acid (%)=(Serum uric acid values in control animals−Serum uric acid values in animals administered test compounds)×100/Serum uric acid values in control animals
For `Cc1ccn2c(-c3ccc(C(=O)O)cc3)cc(C#N)c2c1` [Example 2], the inhibition in vivo at 1 mg/kg is greater than 60%.

On to `Cc1ccn2c(-c3ccc(C(=O)O)cc3)cc(C#N)c2c1F` [Example 7], for which the inhibition in vivo at 1 mg/kg is greater than 60%.

Take `CCc1ccn2c(-c3ccc(C(=O)O)cc3)cc(C#N)c2c1` [Example 10]: the inhibition in vivo at 1 mg/kg was greater than 60%.

Consider `Cc1ccn2c(-c3ccc(C(=O)O)c(O)c3)cc(C#N)c2c1F` [Example 23], for which the inhibition in vivo at 1 mg/kg is greater than 60%.

As to `N#Cc1cc(-c2ccc(C(=O)O)c(O)c2)n2cccc(F)c12` [Example 25], the inhibition in vivo at 1 mg/kg is greater than 60%.

Turning to `Cc1ccn2c(-c3ccc(C(=O)O)cc3)cc(C#N)c2c1Cl` [Example 37], the inhibition in vivo at 1 mg/kg is greater than 60%.

The next assay concerns the target T1, Xanthine oxidase (from bovine milk, Sigma) (Bos taurus, UniProt P80457).
T1 construct: Xanthine oxidase (from bovine milk, Sigma); purchased Sigma; host or cells: bovine milk
The experiment in a line: Xanthine oxidase inhibitory activity. It is filed as biochemical. The note with it: xanthine oxidase from bovine milk 0.02 units/mL, xanthine 200 μM, 10 minutes at room temperature, absorbance at 290 nm. On the procedure: (1) Preparation of test compounds
Test compounds were dissolved in DMSO (Wako pure chemical) at 40 mM concentration and then diluted to intended concentrations with phosphate-buffered saline (PBS).
(2) Method for measurement
Xanthine oxidase (from bovine milk, Sigma) was prepared with phosphate-buffered saline (PBS) at 0.02 units/mL, and then the solution was added to 96 well plates at 50 μL/well. In addition, test compounds diluted with PBS were added at 50 μL/well. Xanthine (Wako pure chemical) at 200 μM prepared with PBS was added at 100 μL/well, and the mixture was reacted for 10 minutes at room temperature. Absorbance at 290 nm was measured using a microplate reader SpectraMax Plus 384 (Molecular device). The absorbance under a condition without xanthine is 0%, and control without test compounds is 100%. Fifty % inhibitory concentration (IC50) of test compounds was calculated (Table 17). Ex. No. in the table indicates Example number.
A word on the IC50: it is the concentration that gives 50% inhibition. The compound `N#Cc1cc(-c2ccc(C(=O)O)cc2)n2ccccc12` [Example 1, 4-(1-Cyanoindolizine-3-yl) benzoic acid] had an IC50 of 7 nM.

Regarding `Cc1ccn2c(-c3ccc(C(=O)O)cc3)cc(C#N)c2c1` [Example 2], the midpoint of inhibition, the IC50, lay at 4 nM.

On to `N#Cc1cc(-c2ccc(C(=O)O)cc2)n2cccc(Cl)c12` [Example 3], for which the 50% inhibitory concentration (IC50) was 6 nM.

Regarding `Cc1cccn2c(-c3ccc(C(=O)O)cc3)cc(C#N)c12` [Example 4], it took 7 nM to reach half-maximal inhibition (IC50).

Compound `Cc1cc(C)c2c(C#N)cc(-c3ccc(C(=O)O)cc3)n2c1` [Example 6] had an IC50 of 9 nM.

As for `Cc1ccn2c(-c3ccc(C(=O)O)cc3)cc(C#N)c2c1F` [Example 7], the IC50 was determined as 5 nM.

`N#Cc1cc(-c2ccc(C(=O)O)cc2)n2ccc3c(c12)CCCC3` [Example 9] yielded an IC50 of 3 nM.

`CCc1ccn2c(-c3ccc(C(=O)O)cc3)cc(C#N)c2c1` [Example 10] displayed an IC50 of 8 nM.

`CCc1cccn2c(-c3ccc(C(=O)O)cc3)cc(C#N)c12` [Example 11] returned an IC50 of 4 nM.

For the compound `CCc1ccc2c(C#N)cc(-c3ccc(C(=O)O)cc3)n2c1` [Example 12], the IC50 turned out to be 11 nM.

Take `N#Cc1cc(-c2ccc(C(=O)O)cc2)n2cccc(F)c12` [Example 13]: the IC50 turned out to be 9 nM.

In the case of `N#Cc1cc(-c2ccc(C(=O)O)cc2)n2cc(F)ccc12` [Example 14], the IC50 was found to be 18 nM.

`N#Cc1cc(-c2ccc(C(=O)O)cc2)n2ccc(C(F)(F)F)cc12` [Example 15]: the IC50 came to 10 nM.

`N#Cc1cc(-c2ccc(C(=O)O)c(O)c2)n2ccccc12` [Example 17, 4-(1-Cyanoindolizine-3-yl)-2-hydroxybenzoic acid] yielded an IC50 of 4 nM.

`Cc1cccn2c(-c3ccc(C(=O)O)c(O)c3)cc(C#N)c12` [Example 19] returned an IC50 of 3 nM.

As for `Cc1ccc2c(C#N)cc(-c3ccc(C(=O)O)c(O)c3)n2c1` [Example 20], half-maximal inhibition (IC50) required 5 nM.

`Cc1cc(C)c2c(C#N)cc(-c3ccc(C(=O)O)c(O)c3)n2c1` [Example 21] had an IC50 of 4 nM.

`Cc1ccn2c(-c3ccc(C(=O)O)c(O)c3)cc(C#N)c2c1F` [Example 23]: the IC50 stood at 3 nM.

For the compound `CCc1cccn2c(-c3ccc(C(=O)O)c(O)c3)cc(C#N)c12` [Example 24], the IC50 was 6 nM.

`N#Cc1cc(-c2ccc(C(=O)O)c(O)c2)n2cccc(F)c12` [Example 25]: the IC50 was determined as 5 nM.

Compound `N#Cc1cc(-c2ccc(C(=O)O)c(O)c2)n2ccc(C(F)(F)F)cc12` [Example 27] had an IC50 of 5 nM.

On to `N#Cc1cc(-c2ccc(C(=O)O)s2)n2ccccc12` [Example 28], for which the IC50 was 3 nM.

Turning to `N#Cc1cc(-c2ccc(C(=O)O)c(N)c2)n2ccccc12` [Example 30, 2-Amino-4-(1-cyanoindolizine-3-yl) benzoic acid], the half-inhibitory concentration (IC50) was 8 nM.

Take `N#Cc1cc(-c2ccc(C(=O)O)c(F)c2)n2ccccc12` [Example 33]: it took 30 nM to reach half-maximal inhibition (IC50).

As to `Cc1ccn2c(-c3ccc(C(=O)O)c(F)c3)cc(C#N)c2c1F` [Example 34], the IC50 came to 10 nM.

`Cc1cc2c(C#N)cc(-c3ccc(C(=O)O)cc3)n2cc1Cl` [Example 36] gave an IC50 of 8 nM.

The compound `Cc1ccn2c(-c3ccc(C(=O)O)cc3)cc(C#N)c2c1Cl` [Example 37] had an IC50 of 4 nM.

In turn, `Cc1ccn2c(-c3ccc(C(=O)O)cc3)cc(C#N)c2c1C` [Example 38] came in with an IC50 of 5 nM.

As for `Cc1c(Cl)ccn2c(-c3ccc(C(=O)O)cc3)cc(C#N)c12` [Example 39], the IC50 was found to be 8 nM.

`COc1cccn2c(-c3ccc(C(=O)O)cc3)cc(C#N)c12` [Example 41] showed a 50% inhibitory concentration (IC50) of 5 nM.

The compound `CC(C)c1ccn2c(-c3ccc(C(=O)O)cc3)cc(C#N)c2c1` [Example 42] gave an IC50 of 4 nM.

In turn, `CC(C)(C)c1ccn2c(-c3ccc(C(=O)O)cc3)cc(C#N)c2c1` [Example 43] had an IC50 of 2 nM.

As to `CC(C)(O)c1ccn2c(-c3ccc(C(=O)O)cc3)cc(C#N)c2c1` [Example 44], the IC50 is 3 nM.

The compound `COc1ccn2c(-c3ccc(C(=O)O)cc3)cc(C#N)c2c1` [Example 45] had an IC50 of 5 nM.

With `COc1cc2c(C#N)cc(-c3ccc(C(=O)O)cc3)n2cc1C` [Example 46], the IC50 was found to be 8 nM.

Consider `CC(C)Oc1ccn2c(-c3ccc(C(=O)O)cc3)cc(C#N)c2c1C(F)(F)F` [Example 47, 4-(1-Cyano-7-isopropoxy-8-trifluoromethylindolizine-3-yl) benzoic acid], for which inhibition was half-maximal at 2 nM (IC50).

Compound `N#Cc1cc(-c2ccc(C(=O)O)c(O)c2)n2cc(F)c(C(F)(F)F)cc12` [Example 48] gave an IC50 of 6 nM.

In turn, `Cc1ccn2c(-c3ccc(C(=O)O)c(O)c3)cc(C#N)c2c1C` [Example 51] returned an IC50 of 5 nM.

Compound `Cc1c(Cl)ccn2c(-c3ccc(C(=O)O)c(O)c3)cc(C#N)c12` [Example 52] yielded an IC50 of 2 nM.

As for `CC(=O)c1ccn2c(-c3ccc(C(=O)O)c(O)c3)cc(C#N)c2c1` [Example 53], the IC50 amounted to 3 nM.

`N#Cc1ccn2c(-c3ccc(C(=O)O)c(O)c3)cc(C#N)c2c1` [Example 54] gave an IC50 of 3 nM.

Turning to `CC(C)(C)c1ccn2c(-c3ccc(C(=O)O)c(O)c3)cc(C#N)c2c1` [Example 56], the IC50 was 2 nM.

As for `N#Cc1cc(-c2ccc(C(=O)O)c(O)c2)n2ccc(-c3cnco3)cc12` [Example 57], half-maximal inhibition (IC50) required 4 nM.

On to `CN(C)c1ccn2c(-c3ccc(C(=O)O)c(O)c3)cc(C#N)c2c1` [Example 59], for which 10 nM corresponded to half-maximal inhibition (IC50).

`COc1cc2c(C#N)cc(-c3ccc(C(=O)O)c(O)c3)n2cc1C` [Example 60] came in with an IC50 of 15 nM.

Turning to `N#Cc1c(F)c(-c2ccc(C(=O)O)cc2)n2ccccc12` [Example 61, 4-(1-Cyano-2-fluoroindolizine-3-yl) benzoic acid], the IC50 amounted to 68 nM.

`N#Cc1c(F)c(-c2ccc(C(=O)O)c(O)c2)n2ccccc12` [Example 62, 4-(1-Cyano-2-fluoroindolizine-3-yl)-2-hydroxybenzoic acid] had an IC50 of 4 nM.

Consider `N#Cc1cc(-c2ccc(C(=O)O)c(O)c2)n2ccc(CF)cc12` [Example 63, 4-(1-Cyano-7-fluoromethylindolizine-3-yl)-2-hydroxybenzoic acid], for which the 50% inhibitory concentration (IC50) turned out to be 8 nM.

For the compound `N#Cc1cc(-c2ccc(C(=O)O)cc2)n2ccc(Br)cc12` [Example 64], the IC50 was found to be 8 nM.

`N#Cc1cc(-c2cnc(C(=O)O)c(O)c2)n2ccccc12` [Example 65] registered an IC50 of 8 nM.

`Cc1ccn2c(-c3cnc(C(=O)O)c(O)c3)cc(C#N)c2c1` [Example 66] had an IC50 of 2 nM.

In turn, `Cc1ccn2c(-c3cnc(C(=O)O)c(O)c3)cc(C#N)c2c1F` [Example 67] had an IC50 of 2 nM.

`N#Cc1cc(-c2ccc(C(=O)O)nc2)n2ccccc12` [Example 70] returned an IC50 of 18 nM.

`Cc1nc(-c2cc(C#N)c3ccccn23)sc1C(=O)O` [Example 71] displayed an IC50 of 20 nM.
